# Measurements reported in paper PMC10058827, “A New Way to 2,3,4-Trisubstituted Benzo[h]quinolines: Synthesis, Consecutive Reactions and Cellular Activities” (Molecules, 2023).
# Read-outs that look alike come from different tables or passages of the source.
# What was measured:
# Type in all cases: cell-based
# [1] = tested on: Staphylococcus aureus MRSA (clinical isolate, RKI 11-02670); assay: Antibacterial MIC determination, concentration-dependent growth inhibition
# Protocol: (§1) Overnight cultures of the bacteria were grown aerobically at 37 °C in Müller–Hinton broth with added 1% glucose and a pH of 7.2 for Gram-negative strains, or with a Trypticase soy yeast extract medium (TSY—30 g/L Trypticase soy broth, 3 g/L yeast extract, pH 7.2) for Gram-positive strains. […] A total of 25 μL of test culture was added to 25 μL of a serial dilution of the test compounds in the appropriate medium for the different strains in accordance with standardized procedures in 384-well plates. For screening purposes, the residual absorbance in % was tested at the compound concentrations of 5 and 50 µM. For the selected compounds, the concentration-dependent growth inhibition curves were recorded from the stock solutions in DMSO at the final concentrations of 100, 50, 25, 12.5, 6,25, 3.125, 1.56, 0.78, 0.39, and 0.2 µM. As the positive control compounds, Linezolid (both MRSA strains) Ciprofloxacin (E. faecium, E. coli), and Amikacin (P. aeruginosa) were applied. The highest DMSO concentration in the assay was 1%, which had no apparent effect on the growth of the bacteria. After an incubation time of 18 h at 37 °C under moist conditions, the optical density at 600 nm was measured with a Fusion Universal Microplate Analyzer (Perkin–Elmer, Waltham, MA, USA). […] The following bacterial strains were used: Gram-negative: Escherichia coli (DSM 1116) and Pseudomonas aeruginosa PA7 (DSM 24068), and Gram-positive: Staphylococcus aureus MRSA (clinical isolate, RKI 11-02670) and Staphylococcus aureus MRSA (DSM 11822). The MIC values were determined by curve fitting with Sigma Plot.
# [2] = tested on: Staphylococcus aureus MRSA (DSM 11822); assay: Antibacterial growth inhibition screen, residual growth in % (OD600); settings: for activity at 5 µM: Staphylococcus aureus, strain DSM 11822, compound concentration 5 µM, 18 h at 37 °C; for activity against MRSA (in words): growth inhibition assay
# Protocol: as §1
# [3] = tested on: human breast cancer cell line MCF-7; assay: Antiproliferative WST-1 assay; settings: WST-1, 5 days
# Protocol: (§2) In addition to probing effects on bacterial pathogens, the compounds’ ability to interfere with the proliferation and/or viability of four mammalian cell lines was assessed by quantifying their mitochondrial dehydrogenase activity in a colorimetric assay with the tetrazolium dye WST-1.
# (§3) The effects of the compounds on cell viability were probed with a WST-1 test using the procedure of Ishiyama et al. as modified by Sasse et al.. […] Briefly, the subconfluent cells were washed with Earle’s Balanced Salt Solution (Gibco) without Ca and Mg ions, trypsinized, and re-suspended in Dulbecco’s modified eagle’s medium that contained 5% fetal bovine serum (FBS; L929, KB-3-1, FS4-LTM) or Roswell Park Memorial Institute medium that contained 5% FBS, 0.5% Minimum Essential Medium Non-Essential Amino Acids, Gibco (MEM NEAA), 0.5% GlutaMAX (Gibco), and insulin at 5 μg/mL (MCF-7). […] The blank and solvent controls were incubated under identical conditions. After an incubation period of 5 days (for L929, KB-3-1, and MCF-7) or 24 h (for FS4-LTM), 3 μL of WST-1 (ready-to-use solution by Roche) was added. The incubation time of the plates at 37 °C varied between the cell lines from 20 min for KB-3-1, 30 min for L929, 1 h for FS4-LTM, to 2 h for MCF-7, before measuring absorbance at 450 nm (reference 600 nm) with an Infinite 200 PRO plate reader (Tecan, Männedorf, Switzerland). As the positive control compounds, Auranofin and Staurosporin were applied. The absorbance of the solvent control was set to 100%. The EC50 values were determined with Sigma Plot.
# [4] = tested on: human cervical carcinoma cell line KB-3-1; assay: Antiproliferative WST-1 assay; settings: WST-1, 5 days
# Protocol: as §3, with “In addition to probing effects on bacterial pathogens, the compounds’ ability to interfere with the proliferation and/or viability of four mammalian cell lines was assessed by quantifying their mitochondrial dehydrogenase activity in a colorimetric assay with the tetrazolium dye WST-1. […] The effects” for “The effects”
# [5] = tested on: conditional immortalized human fibroblast cell line FS4-LTM; assay: Antiproliferative WST-1 assay; settings: WST-1, 24 h
# Protocol: as §3, with “In addition to probing effects on bacterial pathogens, the compounds’ ability to interfere with the proliferation and/or viability of four mammalian cell lines was assessed by quantifying their mitochondrial dehydrogenase activity in a colorimetric assay with the tetrazolium dye WST-1. […] The effects” for “The effects”
# [6] = tested on: mouse fibroblast cell line L929; assay: Antiproliferative WST-1 assay; settings: WST-1, 5 days
# Protocol: as §3, with “In addition to probing effects on bacterial pathogens, the compounds’ ability to interfere with the proliferation and/or viability of four mammalian cell lines was assessed by quantifying their mitochondrial dehydrogenase activity in a colorimetric assay with the tetrazolium dye WST-1. […] The effects” for “The effects”
# [7] = tested on: four mammalian cell lines (L929, KB-3-1, MCF-7, FS4-LTM); assay: Antiproliferative WST-1 assay, range over all four cell lines; settings: 5 days (L929, KB-3-1, MCF-7) or 24 h (FS4-LTM)
# Protocol: as §2
# The effects of the compounds on cell viability were probed with a WST-1 test using the procedure of Ishiyama et al. as modified by Sasse et al.. […] Briefly, the subconfluent cells were washed with Earle’s Balanced Salt Solution (Gibco) without Ca and Mg ions, trypsinized, and re-suspended in Dulbecco’s modified eagle’s medium that contained 5% fetal bovine serum (FBS; L929, KB-3-1, FS4-LTM) or Roswell Park Memorial Institute medium that contained 5% FBS, 0.5% Minimum Essential Medium Non-Essential Amino Acids, Gibco (MEM NEAA), 0.5% GlutaMAX (Gibco), and insulin at 5 μg/mL (MCF-7). […] After an incubation period of 5 days (for L929, KB-3-1, and MCF-7) or 24 h (for FS4-LTM), 3 μL of WST-1 (ready-to-use solution by Roche) was added. The incubation time of the plates at 37 °C varied between the cell lines from 20 min for KB-3-1, 30 min for L929, 1 h for FS4-LTM, to 2 h for MCF-7, before measuring absorbance at 450 nm (reference 600 nm) with an Infinite 200 PRO plate reader (Tecan, Männedorf, Switzerland). […] The absorbance of the solvent control was set to 100%. The EC50 values were determined with Sigma Plot.
# [8] = strain RKI 11-02670, 18 h at 37 °C, read-out: MRSA MIC
# [9] = strain RKI 11-02670, converted from µM, read-out: MRSA MIC (µg/mL values in brackets)
compound,measurement,setting,value
"CC(=O)NC[C@H]1CN(c2ccc(N3CCOCC3)c(F)c2)C(=O)O1 [Linezolid, reference compound]",MIC,[1]; [8],0.4 µM
same,activity at 5 µM,[2],1%
"O=[N+]([O-])/C(C(Cl)=C(Cl)Cl)=C(\Nc1cccc2ccccc12)n1cccn1 [Compound 17c, (E)-N-(3,4,4-Trichloro-2-nitro-1-(1H-pyrazol-1-yl)buta-1,3-dien-1-yl)naphthalen-1-amine]",activity at 5 µM,[2],101%
"O=[N+]([O-])c1c(N2CCOCC2)nc2c(ccc3ccccc32)c1C(Cl)Cl [Compound 11b, 4-(4-(Dichloromethyl)-3-nitrobenzo[h]quinolin-2-yl)morpholine]",EC50,"[3]; Homo sapiens, MCF7, 120 h",50 µM
same,EC50,"[4]; Homo sapiens, KB 3-1, 120 h",10 µM
same,EC50,"[5]; Homo sapiens, FS4-LTM",> 50 µM
same,EC50,"[6]; Mus musculus, L929, 120 h",27 µM
same,activity at 5 µM,[2],123%
same,activity against MRSA (in words),[2],inactive
"CCOC(=O)C[S+]([O-])c1nc2c(ccc3ccccc32)c(C(Cl)Cl)c1[N+](=O)[O-] (centres unmarked) [Compound 8, Ethyl 2-((4-(dichloromethyl)-3-nitrobenzo[h]quinolin-2-yl)sulfinyl)acetate]",MIC,[1]; [8],17.5 µM
same,MIC,[1]; [9],7.7 µg/mL
same,EC50,"[3]; Homo sapiens, MCF7, 120 h",3.5 µM
same,EC50,"[4]; Homo sapiens, KB 3-1, 120 h",3.8 µM
same,EC50,"[5]; Homo sapiens, FS4-LTM",3.4 µM
same,EC50,"[6]; Mus musculus, L929, 120 h",2.5 µM
same,EC50,[7],2.5 to 3.8 µM
same,activity at 5 µM,[2],1%
"O=[N+]([O-])/C(C(Cl)=C(Cl)Cl)=C(\Nc1cccc2ccccc12)n1nnc2ccccc21 [Compound 17a, (E)-N-(1-(1H-Benzo[d][1,2,3]triazol-1-yl)-3,4,4-trichloro-2-nitrobuta-1,3-dien-1-yl)naphthalen-1-amine]",activity at 5 µM,[2],120%
"O=[N+]([O-])c1c(-n2cccn2)nc2c(ccc3ccccc32)c1C(Cl)Cl [Compound 18c, 4-(Dichloromethyl)-3-nitro-2-(1H-pyrazol-1-yl)benzo[h]quinoline]",activity at 5 µM,[2],110%
"CCOC(=O)CSc1nc2c(ccc3cc4ccccc4cc32)c(C(Cl)Cl)c1[N+](=O)[O-] [Compound 6, Ethyl 2-((4-(dichloromethyl)-3-nitronaphtho[2,3-h]quinolin-2-yl)thio)acetate]",activity at 5 µM,[2],112%
same,activity against MRSA (in words),[2],inactive
"O=[N+]([O-])c1c(-n2nnc3ccccc32)nc2c(ccc3ccccc32)c1C(Cl)Cl [Compound 18a, 2-(1H-Benzo[d][1,2,3]triazol-1-yl)-4-(dichloromethyl)-3-nitrobenzo[h]quinoline]",activity at 5 µM,[2],95.1%
"O=[N+]([O-])/C(C(Cl)=C(Cl)Cl)=C(\Nc1cccc2ccccc12)n1cncn1 [Compound 17b, (E)-N-(3,4,4-Trichloro-2-nitro-1-(1H-1,2,4-triazol-1-yl)buta-1,3-dien-1-yl)naphthalen-1-amine]",activity at 5 µM,[2],112%
"O=[N+]([O-])C(C(Cl)=C(Cl)Cl)=C(n1cccn1)n1cccn1 [Compound 16c, 1,1’-(3,4,4-Trichloro-2-nitrobuta-1,3-diene-1,1-diyl)bis(1H-pyrazole)]",activity at 5 µM,[2],126%
same,activity against MRSA (in words),[2],no activity
"CC(=O)OC[C@H]1O[C@@H]([S-])[C@H](OC(C)=O)[C@@H](OC(C)=O)[C@@H]1OC(C)=O.CCP(CC)CC.[Au+] [Auranofin, reference compound]",EC50,[3],3.5 µM
same,EC50,[4],0.6 µM
same,EC50,[5],1.3 µM
same,EC50,[6],0.4 µM
"O=C(O)CSc1nc2c(ccc3ccccc32)c(C(Cl)Cl)c1[N+](=O)[O-] [Compound 13, 2-((4-(Dichloromethyl)-3-nitrobenzo[h]quinolin-2-yl)thio)acetic acid]",MIC,[1]; [8],8.4 µM
same,MIC,[1]; [9],3.3 µg/mL
same,EC50,"[3]; Homo sapiens, MCF7, 120 h",17 µM
same,EC50,"[4]; Homo sapiens, KB 3-1, 120 h",6.9 µM
same,EC50,"[5]; Homo sapiens, FS4-LTM",15.7 µM
same,EC50,"[6]; Mus musculus, L929, 120 h",45 µM
same,EC50,[7],6.9 to 45 µM
same,activity at 5 µM,[2],1%
same,activity against MRSA (in words),[2],high activity
"O=[N+]([O-])c1c(Sc2ccc(F)cc2)nc2c(ccc3ccccc32)c1C(Cl)Cl [Compound 10d, 4-(Dichloromethyl)-2-((4-fluorophenyl)thio)-3-nitrobenzo[h]quinoline]",EC50,"[3]; Homo sapiens, MCF7, 120 h",> 50 µM
same,EC50,"[4]; Homo sapiens, KB 3-1, 120 h",< 0.1 µM
same,EC50,"[5]; Homo sapiens, FS4-LTM",> 50 µM
same,EC50,"[6]; Mus musculus, L929, 120 h",> 50 µM
same,activity at 5 µM,[2],98.4%
same,activity against MRSA (in words),[2],complete loss of activity
"CN[C@@H]1C[C@H]2O[C@@](C)([C@@H]1OC)n1c3ccccc3c3c4c(c5c6ccccc6n2c5c31)C(=O)NC4 [Staurosporine, reference compound]",EC50,"[3]; Homo sapiens, MCF7, 120 h",< 0.14 µM
"O=[N+]([O-])c1c(-n2cncn2)nc2c(ccc3ccccc32)c1C(Cl)Cl [Compound 18b, 4-(Dichloromethyl)-3-nitro-2-(1H-1,2,4-triazol-1-yl)benzo[h]quinoline]",activity at 5 µM,[2],107%
"O=[N+]([O-])c1c([S+]([O-])c2ccc(F)cc2)nc2c(ccc3ccccc32)c1C(Cl)Cl (centres unmarked) [Compound 12, 4-(Dichloromethyl)-2-((4-fluorophenyl)sulfinyl)-3-nitrobenzo[h]quinoline]",MIC,[1]; [8],1.2 µM
same,MIC,[1]; [9],0.5 µg/mL
same,EC50,"[3]; Homo sapiens, MCF7, 120 h",> 50 µM
same,EC50,"[4]; Homo sapiens, KB 3-1, 120 h",3.1 µM
same,EC50,"[5]; Homo sapiens, FS4-LTM",4.4 µM
same,EC50,"[6]; Mus musculus, L929, 120 h",3.3 µM
same,activity at 5 µM,[2],2%
"O=[N+]([O-])c1c(N2CCCCC2)nc2c(ccc3ccccc32)c1C(Cl)Cl [Compound 11a, 4-(Dichloromethyl)-3-nitro-2-(piperidin-1-yl)benzo[h]quinoline]",EC50,"[3]; Homo sapiens, MCF7, 120 h",19 µM
same,EC50,"[4]; Homo sapiens, KB 3-1, 120 h",> 50 µM
same,EC50,"[5]; Homo sapiens, FS4-LTM",> 50 µM
same,EC50,"[6]; Mus musculus, L929, 120 h",> 50 µM
same,activity at 5 µM,[2],95.6%
same,activity against MRSA (in words),[2],inactive
